The nature of data set [1]: Solubility in organic solvents. It counts as physicochemical. As for the experimental part:
The solubility test of Example Compound 1-2 of Example 1 was performed by dissolving Example Compound 1-2 respectively in THF, chloroform, toluene, xylene, mesitylene, diethyl ether, dichloromethane, and ethanol. Example Compound 1-2 was not dissolved in any of the above-described solvents, and cannot form a film by various printing methods.

The nature of data set [2]: TG-DTA thermal analysis (elimination of X-Y on heating). To be noted: temperature increase rate 5° C./min. Format: physicochemical. As for the experimental part: A TG-DTA measurement with respect to Example Compound 1 was performed using TG/DTA200 (manufactured by Seiko Instruments is Inc.). […] This was identical with the melting point of the following Example Compound 1-2 described in Japanese Patent Application Laid-Open (JP-A) No. 2011-44686.

[3] abbreviates: solvent such as THF, toluene, chloroform, xylene, diethyl ether, or dichloromethane.

For `C(=C\c1cc2sc3cc4c(cc3c2s1)sc1cc(/C=C/c2ccccc2)sc14)/c1ccccc1` [Example Compound 1-2], the solubility test entry in data set [1] (THF, chloroform, toluene, xylene, mesitylene, diethyl ether, dichloromethane, and ethanol) was “not dissolved”.
As for `CC(C)(C)C(=O)OC(Cc1ccccc1)c1cc2sc3cc4c(cc3c2s1)sc1cc(C(Cc2ccccc2)OC(=O)C(C)(C)C)sc14` (centres unmarked) [Example Compound 1], in data set [1] (setting [3]), the solubility in solvent entry is “easily dissolved”. For the same molecule, the “mass reduction, found value” in data set [2] turned out to be 29.7%.
In the case of `CCCCCC(=O)OC(Cc1ccccc1)c1cc2sc3cc4c(cc3c2s1)sc1cc(C(Cc2ccccc2)OC(=O)CCCCC)sc14` (centres unmarked) [Example Compound 2], in data set [1] (setting [3]), the solubility in solvent entry was “easily dissolved”. Further, the “mass reduction, found value” in data set [2] is 31.4%.
Turning to `O=C(CC(F)(F)F)OC(Cc1ccccc1)c1cc2sc3cc4c(cc3c2s1)sc1cc(C(Cc2ccccc2)OC(=O)CC(F)(F)F)sc14` (centres unmarked) [Example Compound 3], in data set [2], the “mass reduction, found value” is 32.6%.
Same read-out and setting: under `CCCCCC(=O)OC(Cc1ccc(C)cc1)c1cc2sc3cc4c(cc3c2s1)sc1cc(C(Cc2ccc(C)cc2)OC(=O)CCCCC)sc14` (centres unmarked) [Example Compound 4] stands 30.0%; under `CC(=O)OC(Cc1ccc(C)cc1)c1cc2sc3cc4c(cc3c2s1)sc1cc(C(Cc2ccc(C)cc2)OC(C)=O)sc14` (centres unmarked) [Example Compound 5], 17.9%; under `CCCCCCc1ccc(CC(OC(C)=O)c2cc3sc4cc5c(cc4c3s2)sc2cc(C(Cc3ccc(CCCCCC)cc3)OC(C)=O)sc25)cc1` (centres unmarked) [Example Compound 6], 15.1%.
The same measure, in the same setting: under `CCCCCCc1ccc(CC(O)c2cc3sc4cc5c(cc4c3s2)sc2cc(C(O)Cc3ccc(CCCCCC)cc3)sc25)cc1` (centres unmarked) [Example Compound 7] stands 4.0%.
As for `CCCCCOC(=O)OC(Cc1ccccc1)c1cc2sc3cc4c(cc3c2s1)sc1cc(C(Cc2ccccc2)OC(=O)OCCCCC)sc14` (centres unmarked) [Example Compound 11], in data set [1] (setting [3]), the solubility in solvent result is recorded as “easily dissolved”. The “mass reduction, found value” in data set [2] is reported as 33.3%.
The corresponding values for `COC(Cc1ccccc1)c1cc2sc3cc4c(cc3c2s1)sc1cc(C(Cc2ccccc2)OC)sc14` (centres unmarked) [Example Compound 12] are “easily dissolved” and 13.9%.
With `CCOC(=O)CC(=O)OC(Cc1ccccc1)c1cc2sc3cc4c(cc3c2s1)sc1cc(C(Cc2ccccc2)OC(=O)CC(=O)OCC)sc14` (centres unmarked) [Example Compound 13], the solubility in solvent result in data set [1] (setting [3]) was “easily dissolved”. Besides, in data set [2], the “mass reduction, found value” stood at 35.5%.
For `O=C(CCl)OC(Cc1ccccc1)c1cc2sc3cc4c(cc3c2s1)sc1cc(C(Cc2ccccc2)OC(=O)CCl)sc14` (centres unmarked) [Example Compound 14], in data set [1] (setting [3]), the solubility in solvent entry was “easily dissolved”. Besides, the “mass reduction, found value” in data set [2] worked out at 26.6%.
Turning to `O=C(CCC(F)(F)F)OC(Cc1ccccc1)c1cc2sc3cc4c(cc3c2s1)sc1cc(C(Cc2ccccc2)OC(=O)CCC(F)(F)F)sc14` (centres unmarked) [Example Compound 15], the solubility in solvent result in data set [1] (setting [3]) is “easily dissolved”. In addition, the “mass reduction, found value” in data set [2] is listed as 34.3%.
In the case of `CCCCCCc1ccc(CC(OC(=O)C(C)=O)c2cc3sc4cc5c(cc4c3s2)sc2cc(C(Cc3ccc(CCCCCC)cc3)OC(=O)C(C)=O)sc25)cc1` (centres unmarked) [Example Compound 16], the solubility in solvent result in data set [1] (setting [3]) is recorded as “easily dissolved”. Besides, the “mass reduction, found value” in data set [2] is on record as 21.1%.
`Cc1ccc(-c2ccc(CC(O)c3cc4sc5cc6c(cc5c4s3)sc3cc(C(O)Cc4ccc(-c5ccc(C)cc5)cc4)sc36)cc2)cc1` (centres unmarked) [Example Compound 17]: the solubility in solvent result in data set [1] (solvent such as THF or toluene) is listed as “easily dissolved”. In addition, the “mass reduction, found value” in data set [2] is 4.0%.
As for `CCCCCC(=O)OC(Cc1ccc(-c2ccc(C)cc2)cc1)c1cc2sc3cc4c(cc3c2s1)sc1cc(C(Cc2ccc(-c3ccc(C)cc3)cc2)OC(=O)CCCCC)sc14` (centres unmarked) [Example Compound 18], the solubility in solvent entry in data set [1] (setting [3]) was “easily dissolved”. Besides, in data set [2], the “mass reduction, found value” is 24.2%.
In the case of `CSC(=S)OC(Cc1ccc(C)cc1)c1cc2sc3cc4c(cc3c2s1)sc1cc(C(Cc2ccc(C)cc2)OC(=S)SC)sc14` (centres unmarked) [Example Compound 23], the solubility in solvent result in data set [1] (solvent such as THF, toluene, chloroform, xylene, or dichloromethane) is “easily dissolved”.
Turning to `CC(=O)CC(=O)OC(Cc1ccccc1)c1cc2sc3cc4c(cc3c2s1)sc1cc(C(Cc2ccccc2)OC(=O)CC(C)=O)sc14` (centres unmarked) [Example Compound 24], the solubility in solvent result in data set [1] (setting [3]) was “easily dissolved”. Moreover, the “mass reduction, found value” in data set [2] is 25.7%.

For the origin of these results see patent US8952181B2, “Organic semiconductive material precursor containing dithienobenzodithiophene derivative, ink, insulating member, charge-transporting member, and organic electronic device” (Ricoh Company, Ltd., priority 2010, dated 2015).
